Source: publication PMC9516332 (Frontiers in Oncology, 2022)
Where two headings read alike, the source gives them in different places.

System: 134 cancer cell lines
Assay: Cell viability assay (ATPlite, 72 hours), IC50 on cancer cell line panel

## O=C(c1ccc(F)c(F)c1Nc1ccc(I)cc1F)N1CC(O)([C@@H]2CCCCN2)C1 [cobimetinib]
Homo sapiens, MOLT-4, read-out: IC50 in cell proliferation assay, MOLT-4 cell line
  IC50: > 10 µM
Homo sapiens, MV4-11, read-out: IC50 in cell proliferation assay, MV4-11 cell line (FLT3 ITD)
  IC50: 0.111 µM
Homo sapiens, MeWo, read-out: IC50 in cell proliferation assay, MeWo cell line
  IC50: 0.33 µM
Homo sapiens, NCCIT, read-out: IC50 in cell proliferation assay, NCC-IT cell line
  IC50: 1.29 µM
Homo sapiens, NCI-H82, read-out: IC50 in cell proliferation assay, cell line NCI-H82
  IC50: 8.22 µM
Homo sapiens, NCI-H460, read-out: IC50 in cell proliferation assay, NCI-H460 cell line
  IC50: 0.077 µM
Homo sapiens, NCI-H661, read-out: IC50 in cell proliferation assay, NCI-H661 cell line
  IC50: > 10 µM
Homo sapiens, NCI-H716, read-out: IC50 in cell proliferation assay, cell line NCI-H716 (FGFR2-COL14A1)
  IC50: 0.921 µM
Homo sapiens, NCI-H1650, read-out: IC50 in cell proliferation assay, NCI-H1650 cell line (EGFR exon19del)
  IC50: 0.527 µM
Homo sapiens, NCI-H1975, read-out: IC50 in cell proliferation assay, NCI-H1975 cell line (EGFR p.L858R + p.T790M)
  IC50: 0.098 µM
Homo sapiens, NCI-H2228, read-out: IC50 in cell proliferation assay, NCI-H2228 cell line (EML4-ALK)
  IC50: 0.721 µM
Homo sapiens, OVCAR-3, read-out: IC50 in cell proliferation assay, cell line OVCAR-3
  IC50: > 10 µM
Homo sapiens, PFSK-1, read-out: IC50 in cell proliferation assay, cell line PFSK-1
  IC50: > 10 µM
Homo sapiens, RL95-2, read-out: IC50 in cell proliferation assay, cell line RL95-2 (EGFR p.A289V)
  IC50: 0.034 µM
Homo sapiens, RPMI-7951, read-out: IC50 in cell proliferation assay, cell line RPMI-7951 (BRAF p.V600E)
  IC50: 0.02 µM
Homo sapiens, RS4-11, read-out: IC50 in cell proliferation assay, cell line RS4;11
  IC50: > 10 µM
Homo sapiens, Rec1, read-out: IC50 in cell proliferation assay, cell line REC-1
  IC50: 6.39 µM
Homo sapiens, SHP77, read-out: IC50 in cell proliferation assay, cell line SHP-77
  IC50: > 10 µM
Homo sapiens, SK-BR-3, read-out: IC50 in cell proliferation assay, cell line SK-BR-3 (ERBB2 amplification)
  IC50: > 10 µM
Homo sapiens, SK-N-AS, read-out: IC50 in cell proliferation assay, cell line SK-N-AS
  IC50: 0.012 µM
Homo sapiens, SK-N-FI, read-out: IC50 in cell proliferation assay, cell line SK-N-FI
  IC50: 0.082 µM
Homo sapiens, SK-N-MC, read-out: IC50 in cell proliferation assay, cell line SK-N-MC
  IC50: 7.63 µM
Homo sapiens, SK-N-SH, read-out: IC50 in cell proliferation assay, cell line SK-N-SH (ALK p.F1174L)
  IC50: 0.037 µM
Homo sapiens, SNU-5, read-out: IC50 in cell proliferation assay, cell line SNU-5 (MET amplification)
  IC50: 0.047 µM
Homo sapiens, SNU-16, read-out: IC50 in cell proliferation assay, cell line SNU-16 (FGFR2 amplification)
  IC50: 2.49 µM
Homo sapiens, SNU-C2B, read-out: IC50 in cell proliferation assay, cell line SNU-C2B (EGFR p.R165Q)
  IC50: 0.324 µM
Homo sapiens, SU-DHL-1, read-out: IC50 in cell proliferation assay, cell line SU-DHL-1 (NPM1-ALK)
  IC50: 0.478 µM
Homo sapiens, SU-DHL-6, read-out: IC50 in cell proliferation assay, cell line SU-DHL-6
  IC50: 2.02 µM
Homo sapiens, SUP-T1, read-out: IC50 in cell proliferation assay, cell line SUP-T1
  IC50: > 10 µM
Homo sapiens, SW48, read-out: IC50 in cell proliferation assay, cell line SW48 (EGFR p.G719S)
  IC50: 0.059 µM
Homo sapiens, SW480, read-out: IC50 in cell proliferation assay, cell line SW480
  IC50: 0.342 µM
Homo sapiens, SW626, read-out: IC50 in cell proliferation assay, cell line SW626
  IC50: 0.146 µM
Homo sapiens, SW780, read-out: IC50 in cell proliferation assay, cell line SW780 (FGFR3-BAIAP2L1)
  IC50: 0.127 µM
Homo sapiens, SW837, read-out: IC50 in cell proliferation assay, cell line SW837
  IC50: 0.137 µM
Homo sapiens, SW872, read-out: IC50 in cell proliferation assay, cell line SW872 (BRAF p.V600E)
  IC50: 0.046 µM
Homo sapiens, SW900, read-out: IC50 in cell proliferation assay, cell line SW900
  IC50: 0.295 µM
Homo sapiens, SW948, read-out: IC50 in cell proliferation assay, cell line SW948
  IC50: 0.087 µM
Homo sapiens, SW982, read-out: IC50 in cell proliferation assay, cell line SW982 (BRAF p.V600E)
  IC50: 1.7 µM
Homo sapiens, SW-620, read-out: IC50 in cell proliferation assay, cell line SW620
  IC50: 0.093 µM
Homo sapiens, T98G, read-out: IC50 in cell proliferation assay, cell line T98G
  IC50: 3.34 µM
Homo sapiens, TCC-SUP, read-out: IC50 in cell proliferation assay, cell line TCCSUP
  IC50: 0.483 µM
Homo sapiens, THP-1, read-out: IC50 in cell proliferation assay, cell line THP-1
  IC50: 0.02 µM
Homo sapiens, U2OS, read-out: IC50 in cell proliferation assay, cell line U2OS
  IC50: 0.279 µM
Homo sapiens, U-87 MG, read-out: IC50 in cell proliferation assay, cell line U-87MG ATCC
  IC50: 0.925 µM
Homo sapiens, U-118-MG, read-out: IC50 in cell proliferation assay, cell line U-118MG
  IC50: 0.147 µM
Homo sapiens, UMUC3, read-out: IC50 in cell proliferation assay, cell line UM-UC-3
  IC50: 0.043 µM
Hs766T, read-out: IC50 in cell proliferation assay, Hs 766T cell line
  IC50: 0.006 µM
L-82, read-out: IC50 in cell proliferation assay, L-82 cell line (NPM1-ALK)
  IC50: 0.25 µM
Rh30, read-out: IC50 in cell proliferation assay, cell line Rh30
  IC50: 3.41 µM
read-out: IC50 in cell proliferation assay, 11-18 cell line (EGFR p.L858R)
  IC50: > 10 µM
read-out: IC50 in cell proliferation assay, Hs 852.T cell line
  IC50: 0.592 µM
read-out: IC50 in cell proliferation assay, JAR cell line
  IC50: 6.29 µM
read-out: IC50 in cell proliferation assay, cell line 5637
  IC50: 0.452 µM
read-out: IC50 in cell proliferation assay, cell line A-388
  IC50: 0.171 µM
read-out: IC50 in cell proliferation assay, cell line DB
  IC50: 8.69 µM
read-out: IC50 in cell proliferation assay, cell line DEL (NPM1-ALK)
  IC50: 4.2 µM
read-out: IC50 in cell proliferation assay, cell line ES-2 (BRAF p.V600E)
  IC50: 0.032 µM
read-out: IC50 in cell proliferation assay, cell line PA-1
  IC50: 0.496 µM
read-out: IC50 in cell proliferation assay, cell line PC-3
  IC50: > 10 µM
read-out: IC50 in cell proliferation assay, cell line RD
  IC50: 0.092 µM
read-out: IC50 in cell proliferation assay, cell line RKO (BRAF p.V600E)
  IC50: 0.038 µM
read-out: IC50 in cell proliferation assay, cell line RL
  IC50: > 10 µM
read-out: IC50 in cell proliferation assay, cell line RT-4 (FGFR3-TACC3)
  IC50: 0.299 µM
read-out: IC50 in cell proliferation assay, cell line SR (NPM1-ALK)
  IC50: 0.509 µM
read-out: IC50 in cell proliferation assay, cell line T24
  IC50: 0.043 µM
read-out: IC50 in cell proliferation assay, cell line TT (RET p.C634W)
  IC50: 0.225 µM
read-out: IC50 in cell proliferation assay, cell line VA-ES-BJ
  IC50: 4.58 µM
